Measured values taken from the NIST ThermoML archive (doi:10.1016/j.fluid.2005.08.001).

How the values were obtained:
[1] = 298.15 K; 101.33 kPa; Liquid
[2] = excess molar enthalpy (molar enthalpy of mixing); xn = mol fraction of the nth substance listed; conditions: 298.15 K, 101.33 kPa, Liquid, Flow calorimetry

CCCCCC [hexane]
Conditions	mass density [kg/m3]
[1]	654.9

CCO [ethanol]
Conditions	mass density [kg/m3]
[1]	785.07

CCN(CC)CC [triethylamine] + CCCCCC
[2]
Conditions	excess molar enthalpy [kcal/mol]
x1 = 0.025	0.00134
x1 = 0.05	0.00368
x1 = 0.075	0.00468
x1 = 0.1	0.007
x1 = 0.15	0.0104
x1 = 0.2	0.013
x1 = 0.25	0.0152
x1 = 0.3	0.0168
x1 = 0.35	0.0182
x1 = 0.4	0.019
x1 = 0.45	0.0193
x1 = 0.5	0.0196
x1 = 0.6	0.019
x1 = 0.65	0.0173
x1 = 0.7	0.0162
x1 = 0.75	0.0139
x1 = 0.8	0.0122
x1 = 0.85	0.00927
x1 = 0.9	0.00667
x1 = 0.95	0.00323

CCCCCC [hexane] + CCCCO
[2]
Conditions	excess molar enthalpy [kcal/mol]
x2 = 0.0199	0.0527
x2 = 0.0399	0.0685
x2 = 0.05	0.0738
x2 = 0.06	0.0783
x2 = 0.0799	0.087
x2 = 0.0999	0.0943
x2 = 0.1499	0.11
x2 = 0.2	0.123
x2 = 0.25	0.129
x2 = 0.2999	0.133
x2 = 0.35	0.134
x2 = 0.4001	0.131
x2 = 0.4501	0.126
x2 = 0.5	0.12
x2 = 0.55	0.112
x2 = 0.6001	0.102
x2 = 0.6501	0.0909
x2 = 0.7	0.0788
x2 = 0.7501	0.0665
x2 = 0.7999	0.0535
x2 = 0.85	0.0399
x2 = 0.8999	0.0261
x2 = 0.95	0.011

CCN(CC)CC [triethylamine] + CCO
[2]
Conditions	excess molar enthalpy [kcal/mol]
x2 = 0.1116	-0.0893
x2 = 0.1621	-0.134
x2 = 0.2096	-0.163
x2 = 0.2542	-0.197
x2 = 0.2963	-0.225
x2 = 0.3361	-0.243
x2 = 0.4093	-0.285
x2 = 0.5056	-0.319
x2 = 0.5623	-0.329
x2 = 0.614	-0.33
x2 = 0.7047	-0.313
x2 = 0.7991	-0.262
x2 = 0.8477	-0.219
x2 = 0.8774	-0.187
x2 = 0.9052	-0.153
x2 = 0.9311	-0.116
x2 = 0.9555	-0.0767

CCCCCC [hexane] + CCO
[2]
Conditions	excess molar enthalpy [kcal/mol]
x2 = 0.0544	0.0669
x2 = 0.1056	0.0992
x2 = 0.1538	0.115
x2 = 0.1994	0.126
x2 = 0.2426	0.132
x2 = 0.2835	0.136
x2 = 0.3592	0.139
x2 = 0.4277	0.136
x2 = 0.4596	0.134
x2 = 0.49	0.135
x2 = 0.5191	0.133
x2 = 0.5992	0.122
x2 = 0.6472	0.116
x2 = 0.7125	0.106
x2 = 0.8064	0.0848
x2 = 0.8997	0.0535
x2 = 0.9528	0.0291

CCN(CC)CC [triethylamine] + CCCCO
[2]
Conditions	excess molar enthalpy [kcal/mol]
x2 = 0.0501	-0.0212
x2 = 0.1	-0.0787
x2 = 0.1502	-0.13
x2 = 0.1999	-0.156
x2 = 0.2536	-0.196
x2 = 0.3001	-0.228
x2 = 0.3499	-0.266
x2 = 0.3999	-0.282
x2 = 0.4499	-0.304
x2 = 0.5	-0.322
x2 = 0.5499	-0.331
x2 = 0.5999	-0.336
x2 = 0.6499	-0.33
x2 = 0.7001	-0.315
x2 = 0.7501	-0.292
x2 = 0.7999	-0.259
x2 = 0.85	-0.219
x2 = 0.8999	-0.166
x2 = 0.9499	-0.0879
x2 = 0.9792	-0.0411

CCN(CC)CC [triethylamine]
Conditions	mass density [kg/m3]
[1]	722.56

CCCCO [butan-1-ol]
Conditions	mass density [kg/m3]
[1]	805.74
